The record followed here is patent publication EP4643860A1, “USE OF ECTOIN OR DERIVATIVE THEREOF IN PREVENTING AND/OR AMELIORATING CELL DAMAGE CAUSED BY IRRITANT, AND METHOD” (Bloomage Biotechnology Corporation Limited, priority 2022, dated 2024).

Data set [1] can be described thus: Cell activity (MTT) after treatment with acetaldehyde alone. Type of data set: cell-based. As to conditions: human, ca9-22 cells, 1 day, T/NT. An excerpt: The absorbance of each well at 550nm was detected by a microplate reader. […] NT was taken as 100%, and the ratio of T/NT of the sample well was taken as the cell activity, the results of which are shown in Table 3. On the basis of meeting the requirements of significant difference, the greater the cell activity %, the better the effect of inhibiting cell damage caused by acetaldehyde. Table 3 Cell activity results

In data set [2] the test system is CA9-22 cells. The data set can be described thus: Cell activity (MTT) of acetaldehyde-treated cells with ectoine. Type of data set: cell-based. How it is done: Experimental sample solution: ectoine powder and 17.7 M acetaldehyde were diluted with DMEM culture medium respectively, and then the two were mixed in different ratios to prepare experimental sample solutions with different final concentrations.
The absorbance of each well at 550nm was detected by a microplate reader. […] NT was taken as 100%, and the ratio of T/NT of the sample well was taken as the cell activity. The larger the cell activity %, the better the effect of inhibiting cell damage caused by acetaldehyde. Table 4 Cell activity results

The subject of data set [3] is HGF-1 cells. Nature of the data set: ROS generation under CSE induction (DCFH-DA fluorescence). Type of data set: cell-based. The following applies: 24 h pre-incubation, 5% CSE 3 h, vs control group (FIG. 1). On the procedure:
Ectoin (purchased from Bloomage Biotechnology) was weighed and dissolved in HGF-1 cell (gingival fibroblast) complete culture medium (containing 10% FBS, 1% penicillin-streptomycin), to prepare 100 µg/mL and 500 µg/mL ectoine solutions, respectively.
(§1) Preparation of Cigarette Smoke Extract (CSE): The gas collection bottle was sterilized and the HGF-1 cell culture medium was filled into the gas collection bottle. A certain brand of cigarette was fixed on the long tube end of the gas collection bottle, and the short tube end was connected to a vacuum pump. The vacuum pump was turned on and the cigarette was lighted, so that the cigarette smoke entered the culture medium from the long tube end. In this way, cigarette smoke extract was prepared.
Test method: Preparation of a DCFH-DA solution with a final concentration of 10 µM using phenol red-free culture medium.
HGF-1 cells were seeded into a 96-well plate at a density of 30,000 cells/well and cultured at 37°C under 5% CO2 for later use. After 24 hours for cell attachment, a blank group, a control group, and an experimental group containing 100µg/mL and […] ectoine, respectively, were set up, with 100µL/well. […] The fluorescence intensity was measured at an excitation wavelength of 485nm and an emission wavelength of 538nm. […]

Data set [4] relates to CA9-22 cells. The data set can be described thus: Inflammatory factor IL-6 induced by Pg.LPS (ELISA). Type of data set: cell-based. As to conditions: vs Pg.LPS alone (FIG. 3). How it is done:
Experimental materials: Porphyromonas gingivalis lipopolysaccharide (Pg.LPS) (purchased from Sigma), ectoine (from Bloomage Biotechnology Corporation Limited), and DMEM culture medium.
Experimental sample solution: ectoine and Porphyromonas gingivalis lipopolysaccharide were diluted with DMEM culture medium to prepare an experimental sample solution containing a final concentration of 0.001 wt% ectoine + 1 µg/ml Pg.LPS.
CA9-22 cells were cultured in a 24-well plate. After complete attachment, the above experimental sample was added. After 24 hours, the cell culture supernatant was collected. The absorbance at […] and 570 nm was detected by enzyme-linked immunosorbent assay (ELISA), and the concentration of inflammatory factor IL-6 was calculated based on the absorbance.
According to the method in Example 2.1, an experimental sample solution containing a final concentration of 0.01wt% ectoine + 1µg/ml Pg.LPS was prepared, and the concentration of the inflammatory factor IL-6 was calculated. Other experimental processes not mentioned were the same as those in Example 2.1.
According to the method in Example 2.1, an experimental sample solution containing a final concentration of 0.05wt% ectoine+1µg/ml Pg.LPS was prepared, and the concentration of the inflammatory factor IL-6 was calculated. Other experimental processes not mentioned were the same as those in Example 2.1.
Statistical analysis: t-test statistical analysis was used to compare each group with group treated with Pg.LPS alone. * indicates p<0.05, which is considered to be of statistical difference. ** indicates p<0.01, which is considered to be of significant statistical difference, and *** indicates p<0.001, which is considered to be of extremely significant statistical difference.
Experimental materials: Porphyromonas gingivalis lipopolysaccharide (Pg.LPS) (purchased from Sigma), ACHA (from Bloomage Biotechnology Corporation Limited), and DMEM culture medium. […]

The subject of data set [5] is CA9-22 cells. The data set can be described thus: in vitro. How it is done:
(§2) Experimental sample solutions: ectoine powder was dissolved in DMEM culture medium to prepare experimental sample solutions with different final concentrations, and the concentrations were shown in Table 2.
(§3) Methods: CA9-22 cells purchased from ATCC were co-cultured with different experimental sample solutions for 1 day, then the experimental sample solution was removed and MTT was added. After 3 hours, the supernatant was carefully sucked out and dimethyl sulfoxide (DMSO) was added. The absorbance of each well at 550 nm was detected by a microplate reader. The untreated well was used as the control, the absorbance of the sample well was defined as T, and the absorbance of the untreated well was defined as NT. NT was taken as 100%, and the ratio of T/NT of the sample wells was taken as the cell activity. Table 2 Cell activity results

The nature of another data set: in vitro. As to conditions: human, ca9-22 cells, Cell activity. How it is done: as §2, §3
The subject of data set [6] is HGF-1 cells. Nature of the data set: TNF-α generation under CSE induction (ELISA). Type of data set: cell-based. As to conditions: 24 h pre-incubation, 5% CSE 24 h, vs control group (FIG. 2). On the procedure:
Ectoine (purchased from Bloomage Biotechnology) was weighed separately and dissolved in HGF-1 cell complete culture medium (containing 10% FBS, 1% penicillin-streptomycin), to prepare 100 µg/mL and 500 µg/mL ectoine solutions, respectively.
as §1
Test method: HGF-1 cells were seeded into a 96-well plate at a density of 30,000 cells/well and cultured at 37°C under 5% CO2 for later use. […] The secretion of TNF-α was detected using an ELISA detection kit. At the same time as the ELISA detection, cell lysate was added to the 96-well plate and centrifugation was performed, and the supernatant was taken for BCA protein quantification. After homogenization, the control group was used as a benchmark, and the relative content of TNF-α was expressed as a percentage. […]

As for `CC=O` [Acetaldehyde, acetaldehyde], the viability at 24 h, 100 µM in data set [1] (Acetaldehyde 0.0001M) worked out at 96%. Moreover, the viability at 24 h, 1000 µM in data set [1] (Acetaldehyde 0.001M) stood at 93%. Moreover, the viability at 24 h, 5000 µM in data set [1] (Acetaldehyde 0.005M) was found to be 93%. The viability at 24 h, 10000 µM in data set [1] (Acetaldehyde 0.01M) stood at 89%. Besides, in data set [1] (Acetaldehyde 0.02M), the viability at 24 h, 20000 µM is 70%. For the same compound, the viability at 20000 µM in the data set on CA9-22 cells [2] (Homo sapiens, Ca9-22, 24 h, read-out: Cell activity) was 70%.

In the case of `CC1=NC(C(=O)O)CCN1` (stereo not shown) [ectoine, 2-methyl-1,4,5,6-tetrahydropyrimidin-4-carboxylic acid], the “ROS content after CSE oxidative irritation” value in the data set with HGF-1 cells [3] (100µg/mL ectoine) and in the data set with HGF-1 cells [3] (200µg/mL ectoine) was “can inhibit the increase of ROS content” each time. In addition, the “concentration of IL-6 caused by Pg.LPS” value in the data set with CA9-22 cells [4] (0.001wt% ectoine + 1 µg/ml Pg.LPS, 24 h (Example 2.1)) was “can significantly reduce the concentration of IL-6”; in the data set with CA9-22 cells [4] (0.01wt% ectoine + 1µg/ml Pg.LPS, 24 h (Example 2.2)) it was “can significantly reduce the concentration of IL-6”; with CA9-22 cells [4] (0.05wt% ectoine + 1µg/ml Pg.LPS, 24 h (Example 2.3)), “can significantly reduce the concentration of IL-6”. For the same compound, in the data set on CA9-22 cells [5], the cytotoxicity entry was “no cytotoxicity”. For the same compound, the viability at 24 h in the data set “in vitro” worked out at 112%. Besides, the “TNF-α content after CSE irritation” value with HGF-1 cells [6] (100µg/mL ectoine) and with HGF-1 cells [6] (500µg/mL ectoine) was “can inhibit the increase of TNF-α content” in each case. In addition, the “cell activity of CA9-22 after the addition of ectoine” value in the data set with CA9-22 cells [2] (Acetaldehyde 0.02 M + ectoine 0.02-0.1 wt%, vs acetaldehyde-treated group) is given as “increased”.
